Assay results: US9168329B2, “Beta-peptides with antifungal activity” (Wisconsin Alumni Research Foundation, priority 2006, dated 2015)

Legend:
C. albicans = details: cited from earlier work
[1] = tested on: Candida albicans biofilms (ATCC 90028, ATCC 24433, SC5314); test: Biofilm antifungal susceptibility testing (pre-formed biofilms, XTT); assay type: cell-based
Procedure: The susceptibility of Candida albicans biofilms to β-peptide treatment was evaluated using procedures based on the method described by Ramage and Lopez-Ribot. (Ramage, G.; Lopez-Ribot, J. L. Methods Mol. Med. 2005, 118, 71-79). ATCC 90028, ATCC 24433, and SC5314 were grown in liquid yeast peptone dextrose (YPD) medium overnight at 30° C. The cells were washed two times with phosphate-buffered saline (PBS, pH 7.2) and resuspended in RPMI 1640 (with L-glutamine and without sodium bicarbonate, Invitrogen) buffered with 0.145 mol/L 3-(N-morpholino) propanesulfonic acid (MOPS). After adjusting the cell suspension to about 1×10^6 cells/mL in RPMI 1640, 100 μL of the cell suspension was added to selected wells of flat-bottom 96-well plates (Falcon), leaving the last column of wells empty for background controls. Plates were covered and incubated at 37° C. for 48 hours to allow biofilms to form.
After formation, biofilms were washed three times with 200 μL of PBS per well to remove nonadherent cells. Twofold serial dilutions of β-peptide in RPMI 1640 were made, and 100 μL was added to the biofilms in the first 10 columns of the 96-well plates. RPMI 1640 without antifungal (100 μL) was added to the wells in column 11 to serve as a positive growth control. Plates were covered and incubated at 37° C. for an additional 48 hours and then washed as before.
A solution of 0.5 g/L of 2,3-bis(2-methoxy-4-nitro-5-sulfo-phenyl)-2H-tetrazolium-5-carboxanilide (XTT, Sigma) was prepared, and 10 mM menadione (Sigma) in acetone was added to give a final menadione concentration of 1 μM. The XTT solution (100 μL) was added to each well containing a biofilm and to the empty column of wells. The plates were incubated for 1.5 hours at 37° C. to allow the C. albicans cells to reduce the XTT. Following incubation, 75 μL of XTT solution was removed from each well and put into a new 96-well plate to measure the absorbance at 490 nm. The reduction of growth for each concentration of β-peptide was calculated from
[formula] where A490^peptide is the average absorbance for wells containing a specified concentration of a β-peptide, A490^no drug is the average absorbance for wells with biofilms not treated with antifungal, and A490^XTT is the average absorbance for wells containing only XTT. At least three replicates were included for each combination of β-peptide and C. albicans strains. Assay for Biofilm Formation in the Presence of β-Peptide

[2] = tested on: Candida albicans (SC5314, ATCC 24433, ATCC 90028); assay type: cell-based
Procedure: Minimum inhibitory concentration assay. Minimum inhibitory concentrations (MIC) for the β-peptides were determined using the broth microdilution assay described by the Committee for Clinical and Laboratory Standards (formerly known as the National Committee for Clinical Laboratory Standards) (National Committee for Clinical Laboratory Standards Reference method for broth dilution antifungal susceptibility testing of yeasts: approved standard—second edition; NCCLS document M27-A2; NCCLS: Wayne, Pa., 2002). Three strains of Candida albicans were used: SC5314, ATCC 24433, and ATCC 90028. Cells were grown for 24 hours on Sabouraud dextrose agar at 30° C. After 24 hours of growth, the cells were suspended in 0.145 M saline, and the concentration was adjusted to between 1×10^6 cells/mL and 5×10^6 cells/mL in saline. The working suspension was obtained by diluting the suspension 1:1000 in RPMI 1640 (with L-glutamine and without sodium bicarbonate, Invitrogen) buffered with 0.145 mol/L 3-(N-morpholino) propanesulfonic acid (MOPS).
Twofold serial dilutions of stock solutions of α- or β-peptides or amphotericin B (Calbiochem, solubilized in dimethyl sulfoxide) were made in RPMI 1640, and 100 μL aliquots were put into 96-well plates (Falcon). An equal volume of the cell suspension was added to the wells for a total volume of 200 μL. Growth controls and sterility controls were included.
Plates were incubated at 35° C. for 48 h and then visually inspected for fungal growth. […] Experiments were performed in duplicate and repeated on at least two different days.

[3] = tested on: Candida albicans (SC5314, ATCC 24433, ATCC 90028); details: from NCCLS document M27-A2; cited from earlier work
[4] = tested on: human red blood cells (hRBC); test: Hemolysis assay; assay type: cell-based
Procedure: Hemolysis assay. The hemolysis assay was performed using human red blood cells (hRBC) as described previously (Raguse, et al. J. Am. Chem. Soc. 2002, 124, 12774-12785; Porter, et al. J. Am. Chem. Soc. 2005, 127, 11516-11529). The hRBC were washed three times in TRIS-buffered saline (TBS; 10 mM TRIS, 150 mM NaCl, pH 7.2) and then diluted to a concentration of 1% (v/v) in TBS. The hRBC suspension (80 μL) was added to twofold dilutions of peptides in TBS (20 μL) in a 96-well plate (Falcon). Wells containing hRBC treated with 20 μL TBS provided a negative control, and wells with high concentrations of the peptide melittin (Sigma) served as a positive control. After incubating at 37° C. for 1 h, plates were centrifuged, and 50 μL of the supernatant was diluted with 50 μL of water in a fresh 96-well plate. The absorbance of the diluted supernatant was measured at 405 nm, and the percent hemolysis for each well was calculated from
[formula] where A405^peptide is the absorbance for the supernatant of hRBC treated with peptide, A405^buffer is the absorbance for the supernatant of hRBC in TBS, and A405^completlysis is the average absorbance for the supernatant of cells treated with melittin at concentrations of 50-400 μg/mL. Experiments were performed in duplicate on at least two different days. Biofilm Antifungal Susceptibility Testing

[5] = tested on: C. albicans strain SC5314; test: Assay for biofilm formation in the presence of β-peptide; assay type: cell-based, Candida albicans
Procedure: The ability of Candida albicans to form biofilms in the presence of β-peptide was tested using a procedure modified from the protocol for testing biofilms pre-formed in 96-well plates. C. albicans strain SC5314 was grown in liquid yeast peptone dextrose (YPD) medium overnight at 30° C., and the cells were washed twice with PBS (pH 7.2). Cells were resuspended in RPMI 1640, and the cell concentration was adjusted to about 2×10^6 cells/mL in RPMI 1640.
Twofold serial dilutions of β-peptide and amphotericin B were prepared in RPMI 1640, and 50 μL of each dilution was added to wells of a 96-well plate. At least three replicates were included. β-Peptide-free control wells were also included. An equal volume of the cell suspension was added to give a final cell concentration of 1×10^6 cells/mL. Plates were covered and placed in a 37° C. incubator for 48 hours.
After allowing biofilms to form for 48 hours, nonadherent cells were removed from the wells by washing the biofilms three times with 200 μL of PBS per well. A 0.5 g/L XTT solution with 1 μM menadione was prepared, and 100 μL was added to each biofilm formation well and to empty wells for XTT background measurements. […] The absorbance of the solution in each well was measured at 490 nm, and the reduction of growth for biofilms grown in the presence of β-peptide and amphotericin B compared to biofilms grown in medium only was calculated from […]

[6] = pH 7, physiological ionic strength

## magainin 2
C. albicans; pH 7, low ionic strength solutions
  concentration reducing C. albicans growth by 50%: below 1 μg/ml
C. albicans; pH 7, physiologic ionic strength
  activity against C. albicans (in words): inactive

## β^3Tyr-(ACHC-β^3Val-β^3Lys)2
[1]; pre-formed biofilms
  activity in the biofilm killing assay (in words): low activity
[2]; [6]
  antifungal activity in the planktonic NCCLS assay (in words): lacking activity in the planktonic assay

## CCCCCCCCCCCCCCC(=O)N[C@H](CC(=O)N[C@H]1CCCC[C@@H]1C(=O)N[C@H]1CCCC[C@@H]1C(=O)N[C@@H](CCCCN)CC(=O)N[C@H]1CCCC[C@@H]1C(=O)N[C@H]1CCCC[C@@H]1C(=O)N[C@@H](CCCCN)CC(=O)N[C@H]1CCCC[C@@H]1C(=O)N[C@H]1CCCC[C@@H]1C(=O)N[C@@H](CCCCN)CC(N)=O)Cc1ccc(O)cc1 [C15-β^3Tyr-(ACHC-ACHC-β^3Lys)3]
[1]; at the highest concentration tested
  reduction in biofilm growth: barely surpassed this mark
[1]; pre-formed biofilms
  activity in the biofilm killing assay (in words): low activity
[2]; [6]
  antifungal activity in the planktonic NCCLS assay (in words): lacking activity in the planktonic assay
[2]; planktonic, strain not stated
  MIC: > 128 µg/mL

## β^3Tyr-ACHC-(ACHC-β^3Lys)3-ACHC-ACHC
[1]; pre-formed biofilms
  activity in the biofilm killing assay (in words): low activity
[2]; [6]
  antifungal activity in the planktonic NCCLS assay (in words): lacking activity in the planktonic assay

## OC(Cn1cncn1)(Cn1cncn1)c1ccc(F)cc1F [fluconazole]
[3]
  MIC range: 0.8 to 3.3 µM

## C[C@@H]1[C@H](O)[C@@H](C)/C=C/C=C/C=C/C=C/C=C/C=C/C=C/[C@H](O[C@@H]2O[C@H](C)[C@@H](O)[C@H](N)[C@@H]2O)C[C@@H]2O[C@](O)(C[C@@H](O)C[C@@H](O)[C@H](O)CC[C@@H](O)C[C@@H](O)CC(=O)O[C@H]1C)C[C@H](O)[C@H]2C(=O)O [Amphotericin B]
[3]
  MIC range: 0.3 to 2.2 µM

## CC(C)[C@@H](CC(=O)N[C@@H](CCCCN)CC(=O)N[C@H]1CCCC[C@@H]1C(=O)N[C@H](CC(=O)N[C@@H](CCCCN)CC(=O)N[C@H]1CCCC[C@@H]1C(=O)N[C@H](CC(=O)N[C@@H](CCCCN)CC(N)=O)C(C)C)C(C)C)NC(=O)[C@H]1CCCC[C@@H]1NC(=O)C[C@@H](N)Cc1ccc(O)cc1 [β-peptide 1, β^3Tyr-(ACHC-β^3Val-β^3Lys)3]
[1]; pre-formed biofilms
  concentration killing (nearly all cells in) pre-formed biofilms: 256 µg/mL
[2]; average over three C. albicans strains, pH 7, physiological ionic strength, Table 1 prints no unit
  Average MIC: 16 µg/mL
[2]; [6]
  antifungal activity in the planktonic NCCLS assay (in words): showed activity in the planktonic assay
[4]
  % Hemolysis at MIC: 21%
[5]
  biofilm-preventing concentration relative to planktonic MIC: two times its planktonic MIC
  concentration completely preventing biofilm formation: 32 µg/mL
